# Experimental data as given in patent US20230364111A1 (priority 2020, published 2023).
# Entries after “also recorded” stand apart in the source; their conditions may differ. Read-outs that look alike come from different tables or passages of the source.
# Key:
# SARS-CoV-2 Wk-521 strain = assay: SARS-CoV-2 infection assay, viral RNA in culture supernatant (VeroE6/TMPRSS2 cells); type: cell-based
# TGFβ signaling = type: cell-based; conditions: 10 μM; NIH3T3 cells stimulated with 20 ng/mL TGFβ
# Hedgehog (Hh) signaling = type: cell-based; conditions: 10 μM; NIH3T3 cells with CAPAN-1 conditioned medium containing Shh
# [1] = test system: double-membrane vesicles (DMVs) in SARS-CoV-2-infected cells; assay: Electron microscopy of double-membrane vesicle (DMV) formation; type: cell-based; conditions: 10 μM Oxy210, Oxy232 (10 μM)
# [2] = test system: SARS-CoV-2 (isolate USA WA1/2020); assay: SARS-CoV-2 infection of Calu-3 cells (dsRNA+ cells, automated microscopy); type: cell-based
# Experimental: (§1) FIGS. 12A-12C depict dose-response curves for Oxy232. (FIG. 12A) Secreted viral RNA in the VeroE6 culture supernatant 24 h post-inoculation was quantified by real-time RT-PCR. Cell viability of Oxy232 treated cells evaluated with an MTT assay. (FIG. 12B) Secreted viral RNA of 3 SARS-CoV-2 strains in the VeroE6 culture supernatant 24 h post-inoculation was quantified by real-time RT-PCR. (FIG. 12C) Calu-3 (ATCC) cells were pretreated with Oxy232 for 2 hours prior to continuous infection with SARS-CoV-2 (isolate USA WA1/2020) at MOI=0.5. 48 h post-infection, cells were fixed, immune-strained, and imaged by automated microscopy for infection (dsRNA+ cells/total cell number) and cell number.
# According to a previously published report (Ohashi et al., Identification of Anti-Severe Acute Respiratory Syndrome-Related Coronavirus 2 (SARS-CoV-2) Oxysterol Derivatives In Vitro. Int J Mol Sci. 2021; 22(6):3163. PMCID: PMC8003796) inventors have tested a collection of naturally occurring and semisynthetic oxysterol derivatives in a SARS-CoV-2 cell culture infection assay in VeroE6/TMPRSS2 cells. […] See, Ohashi et al., Int J Mol Sci. 2021; 22(6):3163 and Dittmar et al. Drug repurposing screens reveal cell-type-specific entry pathways and FDA-approved drugs active against SARS-Cov-2. Cell Rep. […] PMCID: PMC7985926. […] Without wishing to be bound by a theory, biological activities of oxysterols, including measures of cell viability, can heavily depend on in vitro assay conditions, such as the fetal bovine serum concentration or the duration of pretreatment with the compounds, among other factors, that may not translate to the in vivo safety of the compounds.
# [3] = test system: SARS-CoV-2 TY7-501 (Brazil strain); assay: SARS-CoV-2 TY7-501 strain infection in VeroE6/TMPRSS2 cells; type: cell-based; conditions: viral RNA 24 h post-inoculation
# Experimental: as §1
# (§2) According to a previously published report (Ohashi et al., Identification of Anti-Severe Acute Respiratory Syndrome-Related Coronavirus 2 (SARS-CoV-2) Oxysterol Derivatives In Vitro. Int J Mol Sci. 2021; 22(6):3163. PMCID: PMC8003796) inventors have tested a collection of naturally occurring and semisynthetic oxysterol derivatives in a SARS-CoV-2 cell culture infection assay in VeroE6/TMPRSS2 cells. […] See, Ohashi et al., Int J Mol Sci. 2021; 22(6):3163 and Dittmar et al. Drug repurposing screens reveal cell-type-specific entry pathways and FDA-approved drugs active against SARS-Cov-2. Cell Rep. […] PMCID: PMC7985926. […]
# [4] = test system: SARS-CoV-2 TY8-612 (South Africa strain); assay: SARS-CoV-2 TY8-612 strain infection in VeroE6/TMPRSS2 cells; type: cell-based; conditions: viral RNA 24 h post-inoculation
# Experimental: as §1, §2
# VeroE6/TMPRSS2 cells = conditions: MTT assay; 24 h; VeroE6/TMPRSS2 cells
# Calu-3 cells = conditions: at higher concentrations; automated microscopy
# [5] = for Mean Oxy232 Levels in Lung Tissue (ng/g) / Mean Oxy232 Levels in Lung Tissue (μM): oral 200 mg/kg
# in vitro [6] = conditions: African green monkey
# in vitro [7] = conditions: human
compound,measurement,setting,value
"CC[C@@](O)(CCc1cccnc1)[C@H]1CC[C@H]2[C@@H]3CC[C@H]4C[C@@H](O)CC[C@]4(C)[C@H]3CC[C@]12C [Oxy232, (3S,5S,8R,9S,10S,13S,14S,17S)-17-((R)-3-hydroxy-1-(pyridin-3-yl)pentan-3-yl)-10,13-dimethylhexadecahydro-1H-cyclopenta[a]phenanthren-3-ol]",viral RNA in the culture supernatant,"SARS-CoV-2 Wk-521 strain; 24 h post-inoculation, natural oxysterols up to 30 μM, semi-synthetic up to 15 μM",reduced viral RNA level in a dose-dependent manner
same,IC50,"SARS-CoV-2 Wk-521 strain; Severe acute respiratory syndrome coronavirus 2, Vero C1008, read-out: IC50 VeroE6 cells (ng/mL)",2370 ng/mL
same,IC90,"SARS-CoV-2 Wk-521 strain; Severe acute respiratory syndrome coronavirus 2, Vero C1008, read-out: IC90 VeroE6 cells (ng/mL), Table 6, same value in mass units",3250 ng/mL
same,IC50,"SARS-CoV-2 Wk-521 strain; Severe acute respiratory syndrome coronavirus 2, Vero C1008, SARS-CoV-2, VeroE6, read-out: IC50 (VeroE6)",5.4 µM
same,IC90,"SARS-CoV-2 Wk-521 strain; Severe acute respiratory syndrome coronavirus 2, Vero C1008, SARS-CoV-2, VeroE6, read-out: IC90 (VeroE6)",7.8 µM
same,IC50,"SARS-CoV-2 Wk-521 strain; Severe acute respiratory syndrome coronavirus 2, Vero C1008, Table 6, read-out: IC50 VeroE6 cells",5.4 µM
same,IC90,"SARS-CoV-2 Wk-521 strain; Severe acute respiratory syndrome coronavirus 2, Vero C1008, Table 6, read-out: IC90 VeroE6 cells",7.8 µM
same,IC90,"SARS-CoV-2 Wk-521 strain; Severe acute respiratory syndrome coronavirus 2, VeroE6/TMPRSS2, 24 h, SARS-CoV-2 viral RNA in culture supernatant, 24 h post-inoculation, VeroE6/TMPRSS2 cells, read-out: IC90",7.8 µM
same,IC50,"SARS-CoV-2 Wk-521 strain; Severe acute respiratory syndrome coronavirus 2, SARS-CoV-2 viral RNA in culture supernatant, 24 h post-inoculation, VeroE6/TMPRSS2 cells, read-out: IC50",5.4 µM
same,IC90 VeroE6 cells,"SARS-CoV-2 Wk-521 strain; Table 6, same value in mass units",3.429 mg/L
same,reduction of viral RNA production at the maximum,SARS-CoV-2 Wk-521 strain; at 15 μM,99.9%
same,anti-SARS-CoV-2 activity,"SARS-CoV-2 Wk-521 strain; cell-based assay, VeroE6/TMPRSS2",superior anti-SARS-CoV-2 activity; also recorded: anti-SARS-CoV-2 activity comparable to Oxy210; also recorded: significant anti SARS-CoV-2 activity
same,viral RNA levels in the culture supernatant,"SARS-CoV-2 Wk-521 strain; oxysterol derivatives at 10 or 30 uM, 24 h post-inoculation, VeroE6/TMPRSS2",strongly reduced viral RNA levels
same,SARS-CoV-2 replication,SARS-CoV-2 Wk-521 strain; statement in words,drastically reduced SARS-CoV-2 replication
same,viral inhibition,"SARS-CoV-2 Wk-521 strain; tested in multiple studies, VeroE6/TMPRSS2",greater than 99%
same,TGFβ inhibitory properties (CTGF mRNA),TGFβ signaling,devoid of significant TGFβ pathway inhibitory properties
same,inhibitory activity toward Hh signaling (Gli1 mRNA),Hedgehog (Hh) signaling,retains inhibitory activity toward Hh signaling
same,DMV formation in SARS-CoV-2-infected cells,[1],inhibit DMV formation
same,IC50,"[2]; Severe acute respiratory syndrome coronavirus 2, Calu-3, read-out: IC50 Calu-3 cells (ng/ml)",3050 ng/mL
same,IC90,"[2]; Severe acute respiratory syndrome coronavirus 2, Calu-3, read-out: IC90 Calu-3 cells (ng/ml)",5920 ng/mL
same,IC50,"[2]; Severe acute respiratory syndrome coronavirus 2, Calu-3, Table 6, read-out: IC50 Calu-3 cells",6.9 µM
same,IC90,"[2]; Severe acute respiratory syndrome coronavirus 2, Calu-3, Table 6, read-out: IC90 Calu-3 cells",13.5 µM
same,IC50,"[2]; Severe acute respiratory syndrome coronavirus 2, SARS-CoV-2 USA WA1/2020, MOI=0.5, 48 h post-infection, Calu-3, read-out: IC50 (Calu-3)",6.9 µM
same,IC90,"[2]; Severe acute respiratory syndrome coronavirus 2, SARS-CoV-2 USA WA1/2020, MOI=0.5, 48 h post-infection, Calu-3, read-out: IC90 (Calu-3)",13.5 µM
same,antiviral activity in Calu-3 human lung epithelial cells,"[2]; USA WA1/2020 isolate, at NIAID",confirmed the antiviral activity
same,activity against the TY7-501 strain,[3],undiminished activity
same,activity against the TY8-612 strain,[4],undiminished activity
same,CC50,VeroE6/TMPRSS2 cells,> 15 µM
same,cell viability in Calu-3 cells,Calu-3 cells,do affect cell viability
same,Mean Oxy232 Levels in Lung Tissue (ng/g),"[5]; mice, time 0 h",0 ng/g
same,Mean Oxy232 Levels in Lung Tissue (μM),"[5]; mice, time 0 h",0 µM
same,Mean Oxy232 Levels in Lung Tissue (ng/g),"[5]; mice, time 0.25 h",1500 ng/g
same,Mean Oxy232 Levels in Lung Tissue (μM),"[5]; mice, time 0.25 h",3.41 µM
same,Mean Oxy232 Levels in Lung Tissue (ng/g),"[5]; mice, time 0.5 h",8055 ng/g
same,Mean Oxy232 Levels in Lung Tissue (μM),"[5]; mice, time 0.5 h",18.32 µM
same,Mean Oxy232 Levels in Lung Tissue (ng/g),"[5]; mice, time 1 h",9427 ng/g
same,Mean Oxy232 Levels in Lung Tissue (μM),"[5]; mice, time 1 h",21.44 µM
same,Mean Oxy232 Levels in Lung Tissue (ng/g),"[5]; mice, time 2 h",7764 ng/g
same,Mean Oxy232 Levels in Lung Tissue (μM),"[5]; mice, time 2 h",17.66 µM
same,Mean Oxy232 Levels in Lung Tissue (ng/g),"[5]; mice, time 4 h",2916 ng/g
same,Mean Oxy232 Levels in Lung Tissue (μM),"[5]; mice, time 4 h",6.63 µM
same,Mean Oxy232 Levels in Lung Tissue (ng/g),"[5]; mice, time 8 h",673 ng/g
same,Mean Oxy232 Levels in Lung Tissue (μM),"[5]; mice, time 8 h",1.53 µM
same,Mean Oxy232 Levels in Lung Tissue (ng/g),"[5]; mice, time 24 h",122 ng/g
same,Mean Oxy232 Levels in Lung Tissue (μM),"[5]; mice, time 24 h",0.28 µM
same,tolerability of oral dosing,[5]; oral dosing in mice,well tolerated
same,concentrations in lung tissue homogenate compared to plasma,"[5]; single dose 200 mg/kg, mice",generally higher than in plasma
same,time lung homogenate concentration above Calu-3 IC50 levels,"[5]; single dose 200 mg/kg, mice",more than 3.5 h
same,time lung homogenate concentration above VeroE6 IC50 levels,"[5]; single dose 200 mg/kg, mice",5 h
same,time plasma concentration above IC50 levels for antiviral activity (VeroE6/TMPRSS2),"[5]; single dose 200 mg/kg, mice",more than 3 hours
same,CC50,in vitro [6],> 15 µM
same,CC50,in vitro [7],29.4 µM
